Consider 50 compounds from patent US9149465B2, “Isoxazolines as inhibitors of fatty acid amide hydrolase” (Infinity Pharmaceuticals, Inc., priority 2009, dated 2015).

In this experiment the target is T1, human FAAH (Homo sapiens, UniProt O00519).
T1 construct: host or cells: COS-7 cells, transient transfection; 13,000 g membrane fraction solubilised in 1% Triton X-100
T1 sequence (O00519 1-579): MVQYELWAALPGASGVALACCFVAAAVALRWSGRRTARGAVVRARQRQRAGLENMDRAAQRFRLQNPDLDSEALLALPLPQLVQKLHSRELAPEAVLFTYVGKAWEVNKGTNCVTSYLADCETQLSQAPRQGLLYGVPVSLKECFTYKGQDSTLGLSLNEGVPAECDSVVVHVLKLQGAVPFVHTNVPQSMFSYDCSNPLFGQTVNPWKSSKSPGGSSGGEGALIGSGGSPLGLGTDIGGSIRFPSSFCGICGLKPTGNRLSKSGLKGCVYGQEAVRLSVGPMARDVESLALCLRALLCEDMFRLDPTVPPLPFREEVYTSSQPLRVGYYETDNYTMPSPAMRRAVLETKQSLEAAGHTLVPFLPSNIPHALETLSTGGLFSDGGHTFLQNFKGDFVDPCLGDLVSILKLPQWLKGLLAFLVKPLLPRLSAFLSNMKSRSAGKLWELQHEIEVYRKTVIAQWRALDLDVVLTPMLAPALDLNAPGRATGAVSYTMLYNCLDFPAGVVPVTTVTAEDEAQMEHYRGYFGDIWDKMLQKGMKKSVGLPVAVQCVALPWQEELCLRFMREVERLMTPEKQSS
Kind of experiment: Inhibition of human FAAH (AMC arachidonoyl amide fluorescence assay). The format is biochemical. The following applies: inhibitor preincubated 30 minutes at room temperature; 20 μM AMC arachidonoyl amide; 4 hours; read-out: Activity (Ki, inhibitors of human FAAH). As to the method:
Human FAAH Preparation: COS-7 cells were split the day before, 1:5 into 150 mm x […] cell culture dishes (Corning Inc., Cat. No. 430599). Transient transfection took place at 30-40% confluency according to FuGENE 6 Transfection Reagent (Roche, Cat. No. 11814 443 001).
Transfection Procedure: The FuGENE transfection 6 reagent (45 uL) was added to 1410 μL of media (DMEM, serum free without pen/strep) in a 15 mL conical tube and incubated at room temp for 5 minutes, followed by the addition of FAAH plasmid DNA (15 μg) (OriGene Cat. No. TC119221, Genbank Accession No. NM_001441.1, 0.67 ug/uL) and a further incubation of 15 minutes at room temperature. The resulting solution was added into one dish of 30-40% confluent COS-7 cells in a drop-wise manner. The COS-7 cell dish was subsequently incubated for 48 hours. The cells are then harvested.
Harvest procedure: Media was aspirated from the dishes and the cells rinsed with 10 mL PBS. The PBS was removed and 3 mL of PBS added to the dish. The dish was scraped to resuspend the cells, and the subsequent cell suspension collected into a 15 mL conical tube. The cells were pelleted by centrifugation at 1200 rpm for 5 minutes in a bench top centrifuge. PBS was removed and the cell pellet snap frozen in liquid nitrogen and stored at −80° C.
COS-7 cells —FAAH purification: • (1) Fractionation: Frozen cell pellets from transient transfections were thawed on ice and resuspended in 12.5 mM Hepes pH 8.0, 100 mM NaCl, 1 mM EDTA (10 mL/0.2 g cell pellet). The pellets were dounce homogenized and then sonicated to produce cell extract. The cell extract was subsequently centrifuged at 1000 g to remove cellular debris. The pellet was discarded and the supernatant centrifuged at 13,000 g for 20 minutes. The pellet contained membrane bound FAAH. The supernatant was discarded and the pellet resolubilized. • (2) Re-solubilization: The fraction of interest, (13,000 g, membrane fraction) was re-suspended in 2.3 mL re-suspension buffer (20 mM Hepes pH 7.8, 10% v/v Glycerol, 1 mM EDTA, 1% Triton X-100) and the sample incubated on ice for 1 hour and then centrifuged to remove any particulate matter. The supernatant containing solubilized human FAAH was aliquoted and snap frozen in liquid nitrogen and stored at −80° C. until use. • (3) Characterization: Protein Concentration determined by Bradford assay. • SDS gel and Western blot to confirm presence of FAAH • FAAH activity assay • Km determination-96-well assay • Linear dependence—96-well assay • Standard compound Ki determination—384-well assay
Human FAAH assay; Experimental Protocol: A 0.1 mg/mL Human FAAH solution was made up in FAAH reaction buffer, and 24 ul pipeted into a 384 well plate. To this was added 1 μL of a 3 fold serially diluted inhibitor from a DMSO stock solution. The FAAH solution and inhibitor were incubated for 30 minutes at room temperature. The FAAH reaction was initiated by the addition of 25 μL of 40 μM AMC Arachidonoyl Amide in FAAH reaction buffer, yielding a final reaction human FAAH preparation concentration of 0.05 mg/ml and AMC-Arachidonoyl substrate concentration of 20 μM, reaction volume 50 μL. The reaction was allowed to proceed for 4 hours at room temperature. The reaction was stopped by the addition of 25 μL 12 μM a-ketoheterocycle (Cayman Chemicals, catalogue #10435). The microtiter plate was read in the envision plate reader.
The raw fluorescence was plotted on the y axis and the inhibitor concentration on the x axis to give a dose response inhibition curve. The data was fitted to a single site competitive inhibition equation, fixing the Km for the human enzyme to 12 μM and 9 μM respectively.
In the case of `Cn1cc(-c2ccc(OC3=NOC(c4ccc(C(F)(F)F)cc4)C3)cn2)cn1` (racemic) [I-219], the inhibition constant (Ki) was at most 100 nM.

In the case of `FC(F)(F)C1(c2ccc(Oc3ccccc3)cc2)CC(Br)=NO1` (racemic) [I-130], the inhibitory constant (Ki) is 100 to 1000 nM.

Take `CCCCOc1ccc([C@H]2CC(Br)=NO2)cc1` (racemic) [I-20]: the inhibition constant Ki was at most 100 nM.

For the compound `O=C(O)c1cc(OC2=NOC(c3ccc(OC(F)(F)F)cc3)C2)ccn1` (racemic) [I-152], the Ki was at most 100 nM.

For `CN(C)S(=O)(=O)c1ccc([C@H]2CC(Br)=NO2)cc1` (racemic) [I-206], the inhibition constant Ki is at most 100 nM.

As to `FC(F)(F)Oc1ccc(C2CC(Oc3ccc(-c4ccn[nH]4)nc3)=NO2)cc1` (racemic) [I-192], the Ki was at most 100 nM.

With `FC(F)(F)Oc1ccc(C2CC(Oc3cccc(-c4nnco4)c3)=NO2)cc1` (racemic) [I-258], the Ki was at most 100 nM.

As to `CNC(=O)c1cncc(OC2=NOC(c3ccc(OC(F)(F)F)cc3)C2)c1` (racemic) [I-54], the inhibition constant Ki is at most 100 nM.

As to `CS(=O)(=O)c1ncc(OC2=NOC(c3ccc(OC(F)(F)F)cc3)C2)cn1` (racemic) [I-133], the Ki is at most 100 nM.

As to `CC(C)Oc1ccc([C@H]2CC(Oc3cncnc3)=NO2)cc1` (racemic) [I-141], the inhibition constant Ki is at most 100 nM.

For the compound `CNC(=O)c1ccc(OC2=NOC(c3ccc(OC(F)(F)F)cc3)C2)cn1` (racemic) [I-107], the Ki was at most 100 nM.

Consider `N[S@SP3](=O)(=O)c1cccc(OC2=NOC(c3ccc(Oc4ccccc4)cc3)C2)c1` (racemic) [I-64], for which the Ki was at least 1000 nM.

As to `Cn1nccc1-c1ccc(OC2=NOC(C)(c3ccc(OC(F)(F)F)cc3)C2)cn1` (racemic) [I-241], the Ki is at most 100 nM.

For `CSc1ncc(OC2=NOC(c3ccc(OC(F)(F)F)cc3)C2)cn1` (racemic) [I-132], the inhibitory constant (Ki) lay within 100 to 1000 nM.

With `Fc1cc([C@H]2CC(Oc3cncnc3)=NO2)ccc1OC(F)(F)F` (racemic) [I-121], the inhibition constant (Ki) was at most 100 nM.

In the case of `FC(F)(F)Oc1ccc(C2CC(Oc3cccc(-c4nnn[nH]4)c3)=NO2)cc1` (racemic) [I-174], the Ki lay in the range of 100 to 1000 nM.

`CC1(c2ccc(OC(F)(F)F)cc2)CC(Br)=NO1` (racemic) [I-75]: the Ki is at most 100 nM.

Consider `CC1(c2ccc(OC(F)(F)F)cc2)CC(Oc2cncc(-c3nnco3)c2)=NO1` (racemic) [I-228], for which the inhibition constant Ki was at most 100 nM.

Consider `c1ccc(Oc2ccc(C3CC(N4CCCC4)=NO3)cc2)cc1` (racemic) [I-256], for which the Ki was at least 1000 nM.

On to `Cc1ccc(-c2ccc(OC3=NOC(c4ccc(OC(F)(F)F)cc4)C3)cn2)o1` (racemic) [I-187], for which the Ki was at most 100 nM.

Regarding `Fc1ccc(OC2=NOC(c3ccc(OC(F)(F)F)cc3)C2)cc1-c1nnco1` (racemic) [I-226], the Ki is at most 100 nM.

For `CC1(c2ccc(OC(F)(F)F)cc2)CC(Oc2ccc(-c3ncco3)nc2)=NO1` (racemic) [I-185], the Ki was at most 100 nM.

Consider `FC(F)(F)Oc1ccc(C2CC(Oc3cccnc3)=NO2)cc1` (racemic) [I-70], for which the Ki was at most 100 nM.

Consider `O=C(O)c1ccc(OC2=NOC(c3ccc(Br)cc3)C2)cn1` (racemic) [I-150], for which the Ki is at most 100 nM.

For the compound `Fc1ccc(OC2=NOC(c3ccc(Oc4ccccc4)cc3)C2)cc1` (single isomer, unassigned) [I-24], the Ki is at least 1000 nM.

Regarding `O=C(O)CCc1ccc(OC2=NOC(c3ccc(Oc4ccccc4)cc3)C2)cn1` (racemic) [I-99], the Ki is at most 100 nM.

With `O=S(=O)(c1ccc(OC2=NOC(c3ccc(OC(F)(F)F)cc3)C2)cn1)C1CCCC1` (racemic) [I-183], the inhibitory constant (Ki) lay in the range of 100 to 1000 nM.

As to `CC1(c2ccc(OC(F)(F)F)cc2)CC(Oc2ccc(C(=O)NO)nc2)=NO1` (racemic) [I-117], the Ki was at most 100 nM.

Turning to `COc1ncc(OC2=NOC(c3ccc(Oc4ccccc4)cc3)C2)cn1` (racemic) [I-66], the Ki is at most 100 nM.

`O=C(O)c1cccc(OC2=NOC(c3ccc(OC(F)(F)F)cc3)C2)c1` (racemic) [I-176]: the Ki was at least 1000 nM.

With `FC(F)(F)Oc1ccc(C2CC(Oc3ccc(-c4ccco4)nc3)=NO2)cc1` (racemic) [I-186], the inhibition constant Ki was at most 100 nM.

On to `Cc1nnc(-c2cncc(OC3=NOC(C)(c4ccc(OC(F)(F)F)cc4)C3)c2)o1` (racemic) [I-229], for which the inhibition constant (Ki) was at most 100 nM.

As to `CN(C)C(=O)c1ccc(OC2=NOC(c3ccc(OC(F)(F)F)cc3)C2)cn1` (racemic) [I-108], the inhibition constant Ki lay within 100 to 1000 nM.

Consider `CC(C)(C)OC(=O)Nc1ccc(OC2=NOC(c3ccc(Oc4ccccc4)cc3)C2)cn1` (racemic) [I-92], for which the Ki was at least 1000 nM.

For `Cc1ccc(Oc2ccc(C3CC(Br)=NO3)cc2)nn1` (single isomer, unassigned) [I-18], the Ki lay within 100 to 1000 nM.

Consider `Cc1noc(-c2cccc(OC3=NOC(c4ccc(OC(F)(F)F)cc4)C3)c2)n1` (racemic) [I-199], for which the Ki was at least 1000 nM.

For the compound `Cc1nnc(-c2cccc(OC3=NOC(C)(c4ccc(OC(F)(F)F)cc4)C3)c2)o1` (racemic) [I-222], the inhibition constant (Ki) is at most 100 nM.

With `FC(F)(F)C1(c2ccc(Oc3ccccc3)cc2)CC(Oc2cncnc2)=NO1` (racemic) [I-131], the Ki was at most 100 nM.

Turning to `O=C(O)c1ccc(-c2ccc(OC3=NOC(c4ccc(OC(F)(F)F)cc4)C3)cn2)o1` (racemic) [I-188], the Ki is at least 1000 nM.

For `COC(=O)c1ccc(OC2=NOC(c3ccc(Oc4ccccc4)cc3)C2)cc1` (racemic) [I-62], the Ki is at most 100 nM.

`COC(=O)c1ccc(C2CC(Br)=NO2)cc1` (racemic) [I-74]: the Ki is at most 100 nM.

As to `BrC1=NOC(c2ccc(Oc3cccnc3)cc2)C1` (single isomer, unassigned) [I-12], the Ki was at most 100 nM.

Turning to `Fc1cccc(OC2=NOC(c3ccc(Oc4ccccc4)cc3)C2)c1` (single isomer, unassigned) [I-25], the Ki lay in the range of 100 to 1000 nM.

On to `CC1(c2ccc(OC(F)(F)F)cc2)CC(Oc2ccc(C(=O)NCC(F)(F)F)nc2)=NO1` (racemic) [I-116], for which the inhibition constant (Ki) lay in the range of 100 to 1000 nM.

On to `O=S(=O)(C1=NOC(c2ccc(OC(F)(F)F)cc2)C1)c1ccccc1` (racemic) [I-250], for which the inhibition constant Ki is at least 1000 nM.

Take `[O-][S+](C1=NOC(c2ccc(OC(F)(F)F)cc2)C1)c1ccccc1` (racemic) [I-249]: the inhibition constant (Ki) is at least 1000 nM.

With `FC(F)(F)Oc1ccc(C2CC(Oc3ccc(-c4nnn[nH]4)cc3)=NO2)cc1` (racemic) [I-175], the Ki lay within 100 to 1000 nM.

With `Clc1ccc([C@H]2CC(Br)=NO2)cc1` (racemic) [I-3], the Ki was at most 100 nM.

Consider `Cn1nnc(-c2ccc(OC3=NOC(c4ccc(OC(F)(F)F)cc4)C3)cc2)n1` (racemic) [I-200], for which the inhibition constant Ki lay in the range of 100 to 1000 nM.

As to `Clc1cccc(C2CC(Br)=NO2)c1` (single isomer, unassigned) [I-4], the Ki fell in the range of 100 to 1000 nM.
